From patent publication US11713341B1, “Antimicrobial NCR13 variant peptides” (Vestaron Corporation, priority 2022, dated 2023)
Where a SMILES comes first, the peptide text is derived from it.

Tested on: Botrytis cinerea
Assay: Antimicrobial bioassay (Botrytis cinerea): growth inhibition by OD600
Assay type: cell-based
Conditions: for anti-Botrytis activities relative to NCR13a: Botrytis cinerea growth, comparison with NCR13a; for Activity ratio to NCR13a: anti-Botrytis cinerea activity (IC50) relative to comparator NCR13a
Method: The antimicrobial effect of the NCR13 variant peptides (NVPs) of the present disclosure were evaluated against the fungal species, Botrytis cinerea. […] The growth of Botrytis cinerea was then assessed via OD600 nm after incubation with a given NVP at room temperature after 96 hours. The IC50 of each peptide analyzed is shown in ppm.
The antimicrobial effect of the NCR13 variant peptides (NVPs) of the present disclosure were evaluated against the fungal species, Botrytis cinerea. […] The growth of Botrytis cinerea was then assessed via OD600 nm after incubation with a given NVP at room temperature after 96 hours.
The NVPs assessed were as follows: NVPM3 (+L) (SEQ ID NO: 5); NVPM5 (+M) (SEQ ID NO: 7); NVPM6 (+F) (SEQ ID NO: 8); NVPM7 (+W) (SEQ ID NO: 9); NVPM9 (+S) (SEQ ID NO: 11); NVPM11 (+Y) (SEQ ID NO: 13); NVPM14 (+D) (SEQ ID NO: 16); and NVPM15 (+E) (SEQ ID NO: 17).
NVPs having an amino acid sequence of SEQ ID NOs: 5, 7, 8, 9, 11, 13, 16, and 17 were generated as described above in Example 1. The peptide, NCR13a, having an amino acid sequence of: […] (SEQ ID NO: 2) was selected as a comparator peptide, with which the antifungal activity of the foregoing NVPs was compared.
The fungal species was Botrytis cinerea was cultured in potato dextrose agar plates. Fungal spores were collected from the agar plates and suspended into de-ionized water, followed by enumeration in a Petroff-Hausser counting chamber (VWR).
The 96-well plates were incubated at room temperature for 96 hours without shaking. The OD600 of the culture plate was determined using SpectraMax plate reader. Relative OD600 was determined by normalizing cell growth to control wells containing neither NVPs nor NCR13a. The OD600 was used to determine IC50.

Row | SMILES | anti-Botrytis activities relative to NCR13a | Activity ratio to NCR13a
1 | CC[C@H](C)[C@H](NC(=O)[C@H](CS)NC(=O)[C@H](CCCCN)NC(=O)[C@@H]1CCCN1C(=O)[C@@H](NC(=O)[C@H](CCCCN)NC(=O)[C@@H]1CCCN1C(=O)[C@H](CCCCN)NC(=O)[C@H](CCCNC(=N)N)NC(=O)[C@H](CS)NC(=O)[C@H](C)NC(=O)[C@H](Cc1ccccc1)NC(=O)[C@H](CCCCN)NC(=O)[C@H](CCCCN)NC(=O)[C@H](CS)NC(=O)[C@H](CC(=O)O)NC(=O)[C@H](CCCCN)NC(=O)[C@H](CC(=O)O)NC(=O)[C@H](CO)NC(=O)[C@H](CCC(N)=O)NC(=O)[C@H](CS)NC(=O)[C@@H]1CCCN1C(=O)[C@H](CCCCN)NC(=O)[C@@H](NC(=O)[C@@H](N)CCC(=O)O)[C@@H](C)O)C(C)C)C(=O)N[C@@H](CC(N)=O)C(=O)NCC(=O)N[C@@H](Cc1ccccc1)C(=O)N[C@@H](CS)C(=O)N[C@@H](CCCCN)C(=O)N[C@@H](CS)C(=O)N[C@H](C(=O)N[C@@H](CCCNC(=N)N)C(=O)O)C(C)C [NVPM15] (H-ETKPCQSDKDCKKFACRKPKVPKCINGFCKCVR-OH; N-terminus and C-terminus assumed) | improved anti-Botrytis activities relative to NCR13a | 1.43
2 | CC[C@H](C)[C@H](NC(=O)[C@H](CS)NC(=O)[C@H](CCCCN)NC(=O)[C@@H]1CCCN1C(=O)[C@@H](NC(=O)[C@H](CCCCN)NC(=O)[C@@H]1CCCN1C(=O)[C@H](CCCCN)NC(=O)[C@H](CCCNC(=N)N)NC(=O)[C@H](CS)NC(=O)[C@H](C)NC(=O)[C@H](Cc1ccccc1)NC(=O)[C@H](CCCCN)NC(=O)[C@H](CCCCN)NC(=O)[C@H](CS)NC(=O)[C@H](CC(=O)O)NC(=O)[C@H](CCCCN)NC(=O)[C@H](CC(=O)O)NC(=O)[C@H](CO)NC(=O)[C@H](CCC(N)=O)NC(=O)[C@H](CS)NC(=O)[C@@H]1CCCN1C(=O)[C@H](CCCCN)NC(=O)[C@@H](NC(=O)[C@@H](N)CC(=O)O)[C@@H](C)O)C(C)C)C(=O)N[C@@H](CC(N)=O)C(=O)NCC(=O)N[C@@H](Cc1ccccc1)C(=O)N[C@@H](CS)C(=O)N[C@@H](CCCCN)C(=O)N[C@@H](CS)C(=O)N[C@H](C(=O)N[C@@H](CCCNC(=N)N)C(=O)O)C(C)C [NVPM14] (H-DTKPCQSDKDCKKFACRKPKVPKCINGFCKCVR-OH; N-terminus and C-terminus assumed) | improved anti-Botrytis activities relative to NCR13a | 1.61
3 | CC[C@H](C)[C@H](NC(=O)[C@H](CS)NC(=O)[C@H](CCCCN)NC(=O)[C@@H]1CCCN1C(=O)[C@@H](NC(=O)[C@H](CCCCN)NC(=O)[C@@H]1CCCN1C(=O)[C@H](CCCCN)NC(=O)[C@H](CCCNC(=N)N)NC(=O)[C@H](CS)NC(=O)[C@H](C)NC(=O)[C@H](Cc1ccccc1)NC(=O)[C@H](CCCCN)NC(=O)[C@H](CCCCN)NC(=O)[C@H](CS)NC(=O)[C@H](CC(=O)O)NC(=O)[C@H](CCCCN)NC(=O)[C@H](CC(=O)O)NC(=O)[C@H](CO)NC(=O)[C@H](CCC(N)=O)NC(=O)[C@H](CS)NC(=O)[C@@H]1CCCN1C(=O)[C@H](CCCCN)NC(=O)[C@@H](NC(=O)[C@@H](N)CCSC)[C@@H](C)O)C(C)C)C(=O)N[C@@H](CC(N)=O)C(=O)NCC(=O)N[C@@H](Cc1ccccc1)C(=O)N[C@@H](CS)C(=O)N[C@@H](CCCCN)C(=O)N[C@@H](CS)C(=O)N[C@H](C(=O)N[C@@H](CCCNC(=N)N)C(=O)O)C(C)C [NVPM5] (H-MTKPCQSDKDCKKFACRKPKVPKCINGFCKCVR-OH; N-terminus and C-terminus assumed) | improved anti-Botrytis activities relative to NCR13a | 2.74
